Source: ChEMBL document CHEMBL1201862, “PubChem BioAssay data set” (2004)
Active and inactive are the calls of the source.

Experiments:
[1] = biological target: T1, Carboxy-terminal domain RNA polymerase II polypeptide A small phosphatase 1 (Homo sapiens, UniProt Q9GZU7); assay: CTDSP1 inhibitors, concentration-response, biochemical, absorbance readout, ultra-high-throughput screen actives (AID 540297); type: functional
T1 sequence (Q9GZU7 whole entry): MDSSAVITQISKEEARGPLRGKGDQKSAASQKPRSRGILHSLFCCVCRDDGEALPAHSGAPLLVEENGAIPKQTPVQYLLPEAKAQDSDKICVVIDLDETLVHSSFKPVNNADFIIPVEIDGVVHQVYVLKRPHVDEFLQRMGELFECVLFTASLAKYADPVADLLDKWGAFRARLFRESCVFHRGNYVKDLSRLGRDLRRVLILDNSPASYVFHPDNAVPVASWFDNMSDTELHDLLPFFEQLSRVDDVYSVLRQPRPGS

[2] = biological target: Luciferin 4-monooxygenase (Photinus pyralis, UniProt P08659); assay: inhibition of purified Photinus pyralis luciferase – biochemical, luminescence, dose response (AID 1891)
Luciferin 4-monooxygenase, sequence (P08659 whole entry): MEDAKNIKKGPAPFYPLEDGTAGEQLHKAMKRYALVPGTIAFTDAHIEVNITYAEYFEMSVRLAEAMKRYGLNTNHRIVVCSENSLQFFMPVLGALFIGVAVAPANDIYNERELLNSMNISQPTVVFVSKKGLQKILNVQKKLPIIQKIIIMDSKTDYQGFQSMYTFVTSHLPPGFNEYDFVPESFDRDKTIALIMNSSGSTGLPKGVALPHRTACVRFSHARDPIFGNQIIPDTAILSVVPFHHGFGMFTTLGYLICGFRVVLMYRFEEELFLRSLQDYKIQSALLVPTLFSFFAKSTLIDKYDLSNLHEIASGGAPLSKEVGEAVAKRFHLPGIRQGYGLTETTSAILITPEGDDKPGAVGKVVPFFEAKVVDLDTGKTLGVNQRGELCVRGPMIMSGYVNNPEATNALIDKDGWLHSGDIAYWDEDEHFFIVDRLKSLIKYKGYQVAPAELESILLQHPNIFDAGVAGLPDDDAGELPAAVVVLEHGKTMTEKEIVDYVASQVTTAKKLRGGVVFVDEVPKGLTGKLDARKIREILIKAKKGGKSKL

[3] = Luminescence Cell-Based Dose Confirmation HTS to Identify Inhibitors of Platelet Dense Granule Release. [Related pubchem assays: 1663 (Primary HTS), 1678 (Summary of Project)]; type: functional
[4] = biological target: T2, RNA-binding protein pos-1 (Caenorhabditis elegans, UniProt G5EF15); assay: disruptors of C. elegans POS-1 RNA interaction – biochemical, fluorescence polarization, dose response (AID 1964);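 also: purified POS-1 fused to maltose binding protein made in E. coli; potency of compounds blocking POS-1 binding to fluorescent RNA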
T2 sequence (G5EF15 whole entry): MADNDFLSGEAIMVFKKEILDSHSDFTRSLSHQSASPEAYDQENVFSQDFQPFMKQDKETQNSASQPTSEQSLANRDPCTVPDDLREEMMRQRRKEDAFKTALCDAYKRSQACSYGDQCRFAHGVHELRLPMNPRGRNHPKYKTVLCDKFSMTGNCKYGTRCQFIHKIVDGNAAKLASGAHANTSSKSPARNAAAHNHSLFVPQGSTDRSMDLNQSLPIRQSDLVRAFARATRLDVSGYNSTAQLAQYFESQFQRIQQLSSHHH

[5] = biological target: T3, Zinc finger protein mex-5 (Caenorhabditis elegans, UniProt Q9XUB2); assay: potency of MEX-5 RNA-binding blockers – biochemical, C. elegans, fluorescence polarization, dose response (AID 1960)
T3 sequence (Q9XUB2 whole entry): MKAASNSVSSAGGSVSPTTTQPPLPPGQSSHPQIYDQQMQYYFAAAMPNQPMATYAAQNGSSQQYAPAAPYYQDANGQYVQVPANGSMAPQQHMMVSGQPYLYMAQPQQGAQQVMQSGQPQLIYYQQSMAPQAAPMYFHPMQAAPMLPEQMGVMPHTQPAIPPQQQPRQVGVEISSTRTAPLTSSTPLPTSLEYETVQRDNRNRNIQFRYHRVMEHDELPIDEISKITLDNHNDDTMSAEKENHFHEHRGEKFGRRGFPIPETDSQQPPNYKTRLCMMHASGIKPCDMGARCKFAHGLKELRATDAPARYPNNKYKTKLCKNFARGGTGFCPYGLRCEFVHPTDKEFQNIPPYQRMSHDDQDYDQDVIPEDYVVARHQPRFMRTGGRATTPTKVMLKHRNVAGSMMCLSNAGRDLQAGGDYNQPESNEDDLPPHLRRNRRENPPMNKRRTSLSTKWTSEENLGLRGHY

[6] = biological target: T4, Microphthalmia-associated transcription factor (Homo sapiens, UniProt O75030); assay: reducers of TRPM1 reporter luminescence, concentration series – cell-based, SK-MEL-5, cherry-picked, set 3, MITF inhibitor project, dose response (AID 493073); type: functional;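 also: SK-MEL-5 melanoma cells with luciferase driven by the MITF target TRPM1 promoter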
T4 sequence (O75030 whole entry): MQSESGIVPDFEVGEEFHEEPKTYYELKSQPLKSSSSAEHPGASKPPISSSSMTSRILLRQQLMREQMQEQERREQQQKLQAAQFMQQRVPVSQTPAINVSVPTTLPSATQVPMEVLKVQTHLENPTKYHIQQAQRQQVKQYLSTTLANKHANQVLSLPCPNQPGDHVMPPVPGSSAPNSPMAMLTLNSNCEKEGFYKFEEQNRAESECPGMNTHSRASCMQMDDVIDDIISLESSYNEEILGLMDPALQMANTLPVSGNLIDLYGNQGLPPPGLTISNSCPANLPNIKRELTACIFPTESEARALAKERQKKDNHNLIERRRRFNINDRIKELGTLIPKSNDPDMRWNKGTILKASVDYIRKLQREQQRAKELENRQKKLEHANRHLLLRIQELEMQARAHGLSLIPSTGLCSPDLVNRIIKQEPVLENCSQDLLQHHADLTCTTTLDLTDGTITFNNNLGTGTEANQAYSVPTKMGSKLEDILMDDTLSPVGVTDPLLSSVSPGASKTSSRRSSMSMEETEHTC

[7] = biological target: Heat shock protein HSP 90-alpha (Homo sapiens, UniProt P07900); type: functional, organism-based
[8] = biological target: Genome polyprotein (dengue virus type 2, UniProt P29990); assay: flavivirus cap methylation enzyme inhibition – biochemical, confirmation dose response, primary screen (AID 588689); type: functional
Genome polyprotein, sequence (P29990 2492-3391 limits assumed): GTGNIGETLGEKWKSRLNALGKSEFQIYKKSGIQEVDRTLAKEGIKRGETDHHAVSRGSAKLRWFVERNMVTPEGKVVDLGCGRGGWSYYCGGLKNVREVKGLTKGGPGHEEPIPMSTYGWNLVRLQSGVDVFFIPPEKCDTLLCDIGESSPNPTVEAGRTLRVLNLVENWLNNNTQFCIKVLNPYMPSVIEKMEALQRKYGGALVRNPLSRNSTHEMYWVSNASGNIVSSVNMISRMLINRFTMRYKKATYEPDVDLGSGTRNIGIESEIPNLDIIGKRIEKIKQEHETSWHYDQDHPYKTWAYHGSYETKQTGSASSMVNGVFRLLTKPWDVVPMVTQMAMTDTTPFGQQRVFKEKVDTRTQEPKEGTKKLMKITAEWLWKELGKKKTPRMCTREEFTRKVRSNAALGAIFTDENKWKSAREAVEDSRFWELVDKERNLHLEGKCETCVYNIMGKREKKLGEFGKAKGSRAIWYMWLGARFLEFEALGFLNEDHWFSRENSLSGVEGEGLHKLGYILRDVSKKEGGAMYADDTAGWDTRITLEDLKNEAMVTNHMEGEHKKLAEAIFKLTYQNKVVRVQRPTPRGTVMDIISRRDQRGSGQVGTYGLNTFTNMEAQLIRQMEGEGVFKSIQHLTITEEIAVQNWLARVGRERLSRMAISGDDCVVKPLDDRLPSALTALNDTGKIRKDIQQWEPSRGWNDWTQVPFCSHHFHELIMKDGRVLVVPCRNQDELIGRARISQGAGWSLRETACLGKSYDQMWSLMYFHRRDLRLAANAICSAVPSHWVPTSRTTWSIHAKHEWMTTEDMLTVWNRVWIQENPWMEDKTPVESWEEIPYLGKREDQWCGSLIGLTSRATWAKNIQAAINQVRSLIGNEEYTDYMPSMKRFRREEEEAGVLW

[9] = biological target: T5, Streptokinase A (Streptococcus pyogenes serotype M1, UniProt P10520); assay: viability-normalized secreted streptokinase activity reduction – plasminogen activation absorbance, OD405, dose response (AID 1914); type: functional, Streptococcus pyogenes M1 GAS;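 also: secreted streptokinase activity via plasminogen activation per viability signal from cell pellet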
T5 sequence (P10520 whole entry): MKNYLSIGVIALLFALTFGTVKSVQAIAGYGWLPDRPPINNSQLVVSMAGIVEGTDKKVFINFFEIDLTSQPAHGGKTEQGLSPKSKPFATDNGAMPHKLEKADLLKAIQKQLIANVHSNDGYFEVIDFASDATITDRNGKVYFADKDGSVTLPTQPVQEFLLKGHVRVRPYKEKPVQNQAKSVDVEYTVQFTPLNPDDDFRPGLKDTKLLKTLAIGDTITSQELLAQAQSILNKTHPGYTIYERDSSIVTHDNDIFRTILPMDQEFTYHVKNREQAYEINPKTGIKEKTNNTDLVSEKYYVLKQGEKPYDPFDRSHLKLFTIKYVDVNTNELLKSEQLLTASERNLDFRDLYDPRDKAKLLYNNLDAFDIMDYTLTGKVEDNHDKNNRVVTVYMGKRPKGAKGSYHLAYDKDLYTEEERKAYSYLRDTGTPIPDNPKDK

[10] = system: Streptococcus sp. 'group A'; assay: Streptococcus pyogenes SK(-)GAS viability under kanamycin – luminescence, BacTiterGlo, confirmation, counter-screen for streptokinase expression inhibitor project, dose response (AID 1900); type: functional, organism-based
[11] = system: Streptococcus; assay: GAS UMAA2166 growth inhibition – luminescence, BacTiterGlo, counter-screen for streptokinase expression inhibitor project, dose response (AID 1915); type: functional, organism-based; conditions: read-out: EC50;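 also: potency for reduction of bacterial viability or growth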
[12] = viability of uninfected HEp-2 cells – cell-based, HTS, cytotoxicity control for RSV inhibitor project, dose response (AID 2410); type: functional; conditions: human respiratory syncytial virus
[13] = biological target: T6, Protein RecA (Mycobacterium tuberculosis, UniProt P9WHJ3); assay: Fluorescence Cell-Free Homogeneous Dose Retest to Identify Inhibitors of RecA-Intein Splicing Activity. [Related pubchem assays (depositor defined):AID2097, AID2223, AID489010, AID492950]; type: functional
T6 sequence (P9WHJ3 whole entry): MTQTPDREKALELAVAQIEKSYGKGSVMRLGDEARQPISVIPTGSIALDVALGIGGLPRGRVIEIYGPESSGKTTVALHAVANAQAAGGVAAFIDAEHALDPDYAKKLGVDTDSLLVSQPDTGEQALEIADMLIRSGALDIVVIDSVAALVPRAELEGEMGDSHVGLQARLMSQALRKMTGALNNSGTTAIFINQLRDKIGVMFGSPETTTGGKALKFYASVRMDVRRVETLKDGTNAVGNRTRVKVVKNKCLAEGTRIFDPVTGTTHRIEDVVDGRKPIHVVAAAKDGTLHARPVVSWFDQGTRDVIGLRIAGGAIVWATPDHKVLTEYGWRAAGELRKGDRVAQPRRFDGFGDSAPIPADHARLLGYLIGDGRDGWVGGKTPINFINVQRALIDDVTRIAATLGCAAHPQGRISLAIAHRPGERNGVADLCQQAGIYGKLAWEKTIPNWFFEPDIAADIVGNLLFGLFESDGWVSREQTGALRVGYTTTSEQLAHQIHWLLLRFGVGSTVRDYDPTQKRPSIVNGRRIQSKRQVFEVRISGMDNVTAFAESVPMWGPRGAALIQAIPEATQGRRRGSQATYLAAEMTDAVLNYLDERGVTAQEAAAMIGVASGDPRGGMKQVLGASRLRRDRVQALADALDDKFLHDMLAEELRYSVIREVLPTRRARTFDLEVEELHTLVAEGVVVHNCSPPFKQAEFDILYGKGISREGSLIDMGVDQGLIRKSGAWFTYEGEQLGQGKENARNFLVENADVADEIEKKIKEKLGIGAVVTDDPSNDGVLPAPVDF

[14] = blockers of HIV-1 envelope-mediated cell-cell fusion – cherry-pick, dose response (AID 652057); type: functional, cell-based
[15] = off-target signal loss in HeLa-CEM21 co-culture – HeLa F-luc CTL cells, cherry-picked, counter-screen for HIV-1 Env fusion inhibitor project, dose response (AID 652040); type: functional, cell-based;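 also: potency for signal decrease marking cytotoxic or nonspecific inhibition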
[16] = Luminescence Cell-Based Dose Retest to Confirm Inhibitors of Cancer Stem Cells. [Related pubchem assays (depositor defined):AID2717, AID2721]; type: functional; conditions: Homo sapiens
[17] = system: SN12K1; assay: cells; type: functional; conditions: Homo sapiens
[18] = system: P388/ADR; assay: cells; type: functional; conditions: Mus musculus

CC(=O)Nc1ccc(NC(=O)CSc2nc(N)c(NC(=O)c3ccccc3F)c(=O)[nH]2)cc1
IC50 [1]: 11.9 µM (active)

Cc1nn(C)c(Cl)c1CN1CCN(C2CCCCC2)C(CCO)C1 (stereo unspecified)
EC50 [2]: > 112 µM (not active)
EC50 [3]: > 112 µM (not active)

Fc1cc(F)cc(-c2c(-c3ccccc3)ncc3ccc(F)cc23)c1
IC50 [1]: 8.88 µM (active)

CN(C)C(=O)COC(=O)c1ccc(S(=O)(=O)NCc2ccco2)cc1
IC50 [1]: 6.65 µM (active)

O=C1NC(=O)N(c2ccc(F)cc2)C(=O)/C1=C/Nc1ccccc1N1CCCC1
EC50 [4]: 76.7 µM (active)
EC50 [5]: 103 µM (active)

O=C(c1ccc([N+](=O)[O-])s1)N1CCCc2ccccc21
AC50 [6]: 11.2 µM (active)

Cc1ccc(N2C(=O)C3C4C=CC(CN=C(S)N5CCN(c6cccc(C)c6)C(C)C5)(O4)C3C2=O)cc1 (stereo unspecified)
AC50 [7]: 8.5 µM (active)

COC(=O)C(C#N)c1nc2ccccc2nc1N1CCN(Cc2ccc3c(c2)OCO3)CC1 (stereo unspecified)
EC50 [2]: > 112 µM (not active)
EC50 [3]: > 112 µM (not active)

Cc1ccccc1NC(=O)/C(C#N)=C\c1cc(C)n(-c2ccc(C(=O)O)cc2)c1C
EC50 [4]: > 300 µM (not active)
EC50 [5]: > 300 µM (not active)

CC1CCN(C(=O)C2CCN(CC(C)c3ccccc3)CC2)CC1 (stereo unspecified)
EC50 [2]: > 112 µM (not active)
EC50 [3]: > 112 µM (not active)

CCOC(=O)/C(C#N)=C/c1cc2ccccc2nc1N1CCCCC1
EC50 [4]: > 300 µM (not active)
EC50 [5]: 104 µM (active)

CC(C)OP(=O)(OC(C)C)C1(NS(=O)(=O)c2ccc(Cl)cc2)C=C(Cl)C(=O)C(Cl)=C1
IC50 [8]: 99.3 µM (active)

C=CCn1c(N)c(C(=O)Nc2cccc(C)c2)c2nc3ccccc3nc21
EC50 [9]: > 150 µM (not active)
EC50 [10]: 2.97 µM (active)
EC50 [11]: 8.54 µM (active)
CC50 [12]: 11.4 µM (active)
EC50 [13]: 13.3 µM (active)

CN1C(=O)C(=Cc2ccccc2OS(=O)(=O)c2ccccc2)C(=O)N(C)C1=O
EC50 [4]: > 300 µM (not active)
EC50 [5]: > 300 µM (not active)

COc1ccc(/C=C(\C#N)C(=O)Nc2ccc3[nH]c(O)nc3c2)cc1
IC50 [1]: 3.26 µM (active)

CN1CCN(C(=O)c2cc(COc3c(F)cccc3F)on2)CC1c1ccccc1 (stereo unspecified)
AC50 [7]: 0.566 µM (active)

O=C(Nc1ccc(Cl)cn1)C1CCCN1S(=O)(=O)c1cccc2ccccc12 (stereo unspecified)
AC50 [14]: 29.8 µM (active)
AC50 [15]: 53.6 µM (active)

O=C(/C=C/c1ccccc1[N+](=O)[O-])c1ccccc1Br
AC50 [16]: 7.14 µM (active)
AC50 [7]: 4.37 µM (active)

COc1cccc(NC(=O)C(=O)c2cn(CC(=O)N3CCOCC3)c3ccccc23)c1
EC50 [4]: > 300 µM (not active)
EC50 [5]: > 300 µM (not active)

COCCN(C(=O)c1cc(-c2ccco2)nc2ccccc12)c1c(N)n(Cc2ccccc2)c(=O)[nH]c1=O
IC50 [1]: 6.59 µM (active)

COc1cccc(NC(=O)c2cccs2)c1
EC50 [2]: > 112 µM (not active)
EC50 [3]: > 112 µM (not active)

O=C(/C=C/c1ccco1)NCCCN1CCN(CCCNC(=O)/C=C/c2ccco2)CC1
EC50 [2]: > 112 µM (not active)
EC50 [3]: > 112 µM (not active)

Cc1cc(C)n(Cc2ccc(F)cc2)c(=O)c1C#N
EC50 [2]: > 112 µM (not active)
EC50 [3]: 15.7 µM (active)

CCOC(=O)C1CCCN(C2CC(=O)N(c3cccc(C(F)(F)F)c3)C2=O)C1 (stereo unspecified)
AC50 [7]: 7.53 µM (active)

CCN1CCN(C(=O)c2ccc3c(=O)n(Cc4ccccc4OC)c(=S)[nH]c3c2)CC1
EC50 [4]: > 300 µM (not active)
EC50 [5]: > 300 µM (not active)

O=C(Cn1cc(/C=N/NC(=O)c2cccc(C(F)(F)F)c2)c2ccccc21)Nc1ccc(F)cc1
IC50 [1]: 4.23 µM (active)

Nc1cc2[nH]cnc2c(=O)[nH]1 [DEZAGUANINE]
GI50 [17]: 13.8 µM (inactive)
GI50 [18]: 10.2 µM (inactive)
